Experimental data taken from patent US20250188075A1, “SUBSTITUTED HETEROCYCLIC CSNK1 INHIBITORS” (The Broad Institute, Inc., priority 2022, published 2025).
Where two headings read alike, the source gives them in different places.

What was measured:
[1] = target: human CSNK1G3 (Homo sapiens (Human), UniProt Q9Y6M4); assay: CSNK1G3 assay (ADP-Glo); type: biochemical; details: median, read-out: CSNK1G IC50 [mol/l] (median)
Method: CSNK1G3-inhibitory activity of compounds of the present invention in presence of 1 μM adenosine-tri-phosphate (ATP) was quantified employing the CSNK1G3 assay as described in the following paragraphs. In essence, the enzyme activity is measured by quantification of the adenosine-di-phosphate (ADP), which is generated as a co-product of the enzyme reaction, via the “ADP-Glo™ Kinase Assay” kit from the company Promega. This detection system works as follows: In a first step the ATP not consumed in the kinase reaction is quantitatively converted to CAMP employing an adenylate cyclase (“ADP-Glo-reagent”), then the adenylate cyclase is stopped and the ADP generated in the kinase reaction converted to ATP which generates in a luciferase-based reaction a glow-luminescence signal (“Kinase Detection Reagent”).
(§1) Recombinant fusion protein of N-terminal Glutathion-S-Transferase (GST) and full-length human CSNK1G3, expressed by baculovirus infected insect cells and purified via Glutathion affinity chromatography, was purchased from Life Technologies (product no. PV3838) and used as enzyme. As substrate for the kinase reaction the biotinylated peptide biotin-Ahx-KRRRAL-pS-VASLPGL (C-terminus in amide form) was used which can be purchased e.g. from the company Biosyntan (Berlin-Buch, Germany).
For the assay 50 nl of a 100 fold concentrated solution of the test compound in DMSO was pipetted into a white 1536-well microtiter plate (Greiner Bio-One, Frickenhausen, Germany), 2 μL of a solution of CSNK1G3 in aqueous assay buffer [50 mM HEPES pH 7.5, 10% (v/v) glycerol, 10 mM MgCl2, 50 mM NaCl, 1 mM dithiothreitol, 0.01% (w/v) bovine serum albumin, 0.01% (v/v) Triton X-100] were added and the mixture was incubated for 15 min at 22° C. to allow pre-binding of the test compounds to the enzyme before the start of the kinase reaction. Then the kinase reaction was started by the addition of 3 μL of a solution of ATP ([…]=>final conc. in the 5 μL assay volume is 1 M) and peptide substrate (50 μM=>final conc. in the 5 μL assay volume is 30 μM) in assay buffer and the resulting mixture was incubated for a reaction time of 30 min at 22° C. The concentration of CSNK1G3 was adjusted depending of the activity of the enzyme lot and was chosen appropriate to have the assay in the linear range, a typical concentration is about 0.06 ng/μL. The reaction was stopped by the addition of 2.5 μL of “ADP-Glo-reagent” (1:1.5 fold diluted with water) and the resulting mixture was incubated at 22° C. for 1 h to convert the ATP not consumed in the kinase reaction completely to CAMP. Subsequently 2.5 μL of the “kinase detection reagent” (1.2 fold more concentrated than recommended by the producer) were added, the resulting mixture was incubated at 22° C. for 1 h and then the luminescence measured with a suitable measurement instrument (e.g. Viewlux™ from Perkin-Elmer). The amount of emitted light was taken as a measure for the amount of ADP generated and thereby for the activity of the CSNK1G3.
(§2) The data were normalised (enzyme reaction without inhibitor=0% inhibition, all other assay components but no enzyme=100% inhibition).

[2] = Solubility assay (thermodynamic solubility); type: physicochemical; details: aqueous buffer; for solubility thermodynamic at 24 h: thermodynamic from solid, mean
Method: Solubility of solid compound in aqueous buffer was determined by an equilibrium shake flask method. A saturated solution of drug in solvent (˜2 mg/ml solvent) was prepared and the solution was mixed for 24 h to ensure that equilibrium has been reached. The solution was centrifuged to remove the insoluble fraction and the concentration of the compound in solution was determined by HPLC-UV using a standard calibration curve (Kerns, E. H. et al., Solubility Methods in: Drug-like Properties: Concepts, Structure Design and Methods, p 276-286. Burlington, MA: Academic Press 2008).

[3] = target: human CSNK1A1 (Homo sapiens (Human), UniProt P48729); assay: CSNK1A1 high ATP assay (ADP-Glo, 1 mM ATP); type: biochemical; details: median, read-out: CSNK1A1 High ATP assay IC50 [mol/l] (median)
human CSNK1A1, sequence (P48729 whole entry): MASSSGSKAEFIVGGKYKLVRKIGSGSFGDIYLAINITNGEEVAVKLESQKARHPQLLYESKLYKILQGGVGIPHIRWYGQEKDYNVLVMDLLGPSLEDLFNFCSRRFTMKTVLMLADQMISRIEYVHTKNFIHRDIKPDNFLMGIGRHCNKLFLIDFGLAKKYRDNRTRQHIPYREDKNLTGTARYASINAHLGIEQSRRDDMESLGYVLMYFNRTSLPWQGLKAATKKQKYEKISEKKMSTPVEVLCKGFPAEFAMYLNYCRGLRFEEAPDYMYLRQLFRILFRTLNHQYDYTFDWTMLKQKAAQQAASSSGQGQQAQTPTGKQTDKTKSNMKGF
Method: CSNK1A1-inhibitory activity of compounds of the present invention in presence of 1 mM adenosine-tri-phosphate (ATP) was quantified employing the CSNK1A1-high-ATP-assay as described in the following paragraphs. In essence, the enzyme activity is measured by quantification of the adenosine-di-phosphate (ADP), which is generated as a co-product of the enzyme reaction, via the “ADP-Glo™ Kinase Assay” kit from the company Promega. This detection system works as follows: In a first step the ATP not consumed in the kinase reaction is quantitatively converted to CAMP employing an adenylate cyclase (“ADP-Glo-reagent”), then the adenylate cyclase is stopped and the ADP generated in the kinase reaction converted to ATP which generates in a luciferase-based reaction a glow-luminescence signal (“Kinase Detection Reagent”).
as §1, with “CSNK1A1,” for “CSNK1G3,”, “PV4174)” for “PV3838)”
For the assay 50 nl of a 100 fold concentrated solution of the test compound in DMSO was pipetted into a white low volume 384-well microtiter plate (Greiner Bio-One, Frickenhausen, Germany), 2 μL of a solution of CSNK1A1 in aqueous assay buffer [50 mM HEPES pH 7.5, 10% (v/v) glycerol, 10 mM MgCl2, 50 mM NaCl, 1 mM dithiothreitol, 0.01% (w/v) bovine serum albumin, 0.01% (v/v) Triton X-100] were added and the mixture was incubated for 15 min at 22° C. to allow pre-binding of the test compounds to the enzyme before the start of the kinase reaction. Then the kinase reaction was started by the addition of 3 μL of a solution of ATP (1.67 mM=>final conc. in the 5 μL assay volume is 1 mM) and peptide substrate (167 μM=>final conc. in the 5 μL assay volume is 100 μM) in assay buffer and the resulting mixture was incubated for a reaction time of 30 min at 22° C. The concentration of CSNK1A1 was adjusted depending of the activity of the enzyme lot and was chosen appropriate to have the assay in the linear range, a typical concentration is about 0.4 ng/μL. The reaction was stopped by the addition of 2.5 μL of “ADP-Glo-reagent” (1:1.5 fold diluted with water) and the resulting mixture was incubated at 22° C. for 1 h to convert the ATP not consumed in the kinase reaction completely to CAMP. Subsequently 2.5 μL of the “kinase detection reagent” (1.2 fold more concentrated than recommended by the producer) were added, the resulting mixture was incubated at 22° C. for 1 h and then the luminescence measured with a suitable measurement instrument (e.g. Viewlux™ from Perkin-Elmer). The amount of emitted light was taken as a measure for the amount of ADP generated and thereby for the activity of the CSNK1A1.
as §2

[4] = read-out: Thermodynamic Solubility [mg/l] (mean)
[5] = read-out: Thermodynamic Solubility [μmol/L] (mean)

human CSNK1G3, sequence (Q9Y6M4 whole entry): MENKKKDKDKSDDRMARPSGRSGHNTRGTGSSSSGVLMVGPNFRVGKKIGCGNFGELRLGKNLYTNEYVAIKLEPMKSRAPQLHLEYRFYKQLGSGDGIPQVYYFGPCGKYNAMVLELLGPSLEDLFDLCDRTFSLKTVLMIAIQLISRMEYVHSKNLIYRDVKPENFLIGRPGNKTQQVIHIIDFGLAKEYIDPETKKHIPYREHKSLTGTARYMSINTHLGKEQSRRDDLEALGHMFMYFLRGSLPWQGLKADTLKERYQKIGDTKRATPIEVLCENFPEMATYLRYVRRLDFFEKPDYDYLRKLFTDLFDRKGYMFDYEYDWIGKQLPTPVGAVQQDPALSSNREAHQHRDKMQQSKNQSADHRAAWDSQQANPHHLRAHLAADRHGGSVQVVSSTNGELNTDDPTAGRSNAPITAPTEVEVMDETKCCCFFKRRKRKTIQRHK

IC50 [1] | solubility thermodynamic at 24 h [2, 4] | solubility thermodynamic at 24 h [2, 5] | IC50 [3] | Thermodynamic Solubility [mg/l] (mean) ([2]; 24 h) | Thermodynamic Solubility [μmol/L] (mean) ([2]; 24 h) | Structure (SMILES)
51.2 nM | 1.3 mg/L | 3.07 µmol/L |  |  |  | Cc1nn(C)cc1CC(=O)Nc1cc(-c2[nH]c3cccnc3c2-c2ccccn2)ccn1 [Example 9, 2-(1,3-dimethylpyrazol-4-yl)-N-[4-[3-(2-pyridyl)-^1H-pyrrolo[3,2-b]pyridin-2-yl]-2-pyridyl]acetamide]
68.9 nM | 5.8 mg/L | 14.1 µmol/L |  |  |  | Cc1nocc1CC(=O)Nc1cc(-c2[nH]c3cccnc3c2-c2ccccn2)ccn1 [Example 30, 2-(3-methylisoxazol-4-yl)-N-[4-[3-(2-pyridyl)-^1H-pyrrolo[3,2-b]pyridin-2-yl]-2-pyridyl]acetamide]
31.7 nM | 2.5 mg/L | 5.9 µmol/L | 70.8 nM |  |  | Cc1cc(CC(=O)Nc2cc(-c3[nH]c4cccnc4c3-c3ccccn3)ccn2)nn1C [Example 16, 2-(1,5-dimethylpyrazol-3-yl)-N-[4-[3-(2-pyridyl)-^1H-pyrrolo[3,2-b]pyridin-2-yl]-2-pyridyl]acetamide]
62.6 nM | 9.9 mg/L | 23.3 µmol/L | 66.9 nM |  |  | Cc1noc(C)c1CC(=O)Nc1cc(-c2[nH]c3cccnc3c2-c2ccccn2)ccn1 [Example 12, 2-(3,5-dimethylisoxazol-4-yl)-N-[4-[3-(2-pyridyl)-^1H-pyrrolo[3,2-b]pyridin-2-yl]-2-pyridyl]acetamide]
14.8 nM | 23.9 mg/L | 50.1 µmol/L | 98.7 nM |  |  | O=C(Cc1ccn(CC(F)(F)F)n1)Nc1cc(-c2[nH]c3cccnc3c2-c2ccccn2)ccn1 [Example 20, N-[4-[3-(2-pyridyl)-^1H-pyrrolo[3,2-b]pyridin-2-yl]-2-pyridyl]-2-[1-(2,2,2-trifluoroethyl)pyrazol-3-yl]acetamide]
74.5 nM | > 409 mg/L | > 1000 µmol/L | 589 nM |  |  | Cn1cnc(CC(=O)Nc2cc(-c3[nH]c4cccnc4c3-c3ccccn3)ccn2)c1 [Example 5, 2-(1-methylimidazol-4-yl)-N-[4-[3-(2-pyridyl)-^1H-pyrrolo[3,2-b]pyridin-2-yl]-2-pyridyl]acetamide]
39.1 nM | 9.1 mg/L | 21.3 µmol/L | 30.8 nM |  |  | Cc1nc(CC(=O)Nc2cc(-c3[nH]c4cccnc4c3-c3ccccn3)ccn2)cs1 [Example 3, 2-(2-methylthiazol-4-yl)-N-[4-[3-(2-pyridyl)-^1H-pyrrolo[3,2-b]pyridin-2-yl]-2-pyridyl]acetamide]
6.54 nM |  |  | 20.1 nM | 9.60 mg/L | 21.55 µmol/L | O=C(Nc1cc(-c2[nH]c3nccnc3c2-c2ccccn2)ccn1)[C@@H](CC(F)F)c1ccc(F)cc1 [Example C1, reference compound]
19.7 nM | < 0.1 mg/L | < 0.23 µmol/L | 244 nM |  |  | O=C(Cc1cc(C2CC2)on1)Nc1cc(-c2[nH]c3cccnc3c2-c2ccccn2)ccn1 [Example 27, 2-(5-cyclopropylisoxazol-3-yl)-N-[4-[3-(2-pyridyl)-^1H-pyrrolo[3,2-b]pyridin-2-yl]-2-pyridyl]acetamide]
39.9 nM | 26.3 mg/L | 64.1 µmol/L |  |  |  | Cc1ncc(CC(=O)Nc2cc(-c3[nH]c4cccnc4c3-c3ccccn3)ccn2)o1 [Example 24, 2-(2-methyloxazol-5-yl)-N-[4-[3-(2-pyridyl)-^1H-pyrrolo[3,2-b]pyridin-2-yl]-2-pyridyl]acetamide]
64.4 nM | 23.1 mg/L | 56.3 µmol/L |  |  |  | Cc1nc(CC(=O)Nc2cc(-c3[nH]c4cccnc4c3-c3ccccn3)ccn2)co1 [Example 25, 2-(2-methyloxazol-4-yl)-N-[4-[3-(2-pyridyl)-^1H-pyrrolo[3,2-b]pyridin-2-yl]-2-pyridyl]acetamide]
20.4 nM | < 0.1 mg/L | < 0.23 µmol/L |  |  |  | CC(C)n1ccc(CC(=O)Nc2cc(-c3[nH]c4cccnc4c3-c3ccccn3)ccn2)n1 [Example 28, 2-(1-isopropylpyrazol-3-yl)-N-[4-[3-(2-pyridyl)-^1H-pyrrolo[3,2-b]pyridin-2-yl]-2-pyridyl]acetamide]
 | 25.2 mg/L | 63.7 µmol/L |  |  |  | O=C(Cc1cnco1)Nc1cc(-c2[nH]c3cccnc3c2-c2ccccn2)ccn1 [Example 4]
33 nM | 15.4 mg/L | 38.9 µmol/L |  |  |  | O=C(Cc1ccon1)Nc1cc(-c2[nH]c3cccnc3c2-c2ccccn2)ccn1 [Example 10, 2-isoxazol-3-yl-N-[4-[3-(2-pyridyl)-^1H-pyrrolo[3,2-b]pyridin-2-yl]-2-pyridyl]acetamide]
7.89 nM |  |  | 6.06 nM |  |  | O=C(Cc1cnc2ccccc2n1)Nc1cc(-c2[nH]c3cccnc3c2-c2ccccn2)ccn1 [Example 6, N-[4-[3-(2-pyridyl)-^1H-pyrrolo[3,2-b]pyridin-2-yl]-2-pyridyl]-2-quinoxalin-2-yl-acetamide]
120 nM | 8.4 mg/L | 20.5 µmol/L |  |  |  | Cc1ocnc1CC(=O)Nc1cc(-c2[nH]c3cccnc3c2-c2ccccn2)ccn1 [Example 11, 2-(5-methyloxazol-4-yl)-N-[4-[3-(2-pyridyl)-^1H-pyrrolo[3,2-b]pyridin-2-yl]-2-pyridyl]acetamide]
